Data published in patent publication US8143025B2, “Antibodies against vascular endothelial growth factor receptor-1” (ImClone LLC, priority 2004, dated 2012).
Entries after “also recorded” stand apart in the source; their conditions may differ.

What was measured:
MDA-MB-231 xenograft = assay: MDA-MB-231 breast tumor xenograft; assay type: in vivo, mouse
Procedure: Mice in control groups received an equal volume of saline solution. Treatment of animals was continued for the duration of the experiment. Tumors were measured twice each week with calipers. Tumor volumes were calculated using the formula [π/6 (w1×w2×w2)], where “w1” represents the largest tumor diameter and “w2” represents the smallest tumor diameter. […] When tumors reached approximately 200-300 mm^3, mice were randomized by tumor size and divided into treatment groups. Tumor growth was evaluated approximately twice weekly, with tumor volume calculated as π/6* (Length*Width^2), where Length=longest diameter and Width=diameter perpendicular to Length. Tumor dimensions were measured with calipers. T/C % was calculated as 100*(Final Treatment Tumor Volume/Initial Treatment Tumor Volume)/(Final Control Tumor Volume/Initial Control Tumor Volume). […] The effect of treatment on tumor growth was analyzed using repeated measures analysis of variance (RM ANOVA), p<0.05 was considered significant. […] Antibody treatments administered at a constant dose per mouse were administered in a volume of 0.5 mL per mouse. Antibody and cytotoxic treatments administered at a dose proportional to body weight were given in a volume of 10 μL per gram body weight. […] AU treatments were administered i.p. The effect of treatments on tumor growth were analyzed using repeated measures analysis of variance (RM ANOVA), p<0.05 was considered significant.

GEO xenograft = assay: GEO colon cancer xenograft; assay type: in vivo, mouse; conditions: monotherapy, FIG. 26C
Procedure: Female athymic nu/nu mice, 6-8 weeks of age, were injected subcutaneously on the lateral dorsal surface with 0.4 mL volume of a suspension containing a human tumor cell line in media, diluted 1:1 with MATRIGEL™ (BD Biosciences). The cell lines used in xenograft models, with the cell doses indicated in parenthesis (10^6 cells/mouse), were: human colon carcinoma cell lines DLD-I (5), GEO (5) and HT-29 (5); human breast carcinoma cell lines DU4475 (2), MDA-MB-231 (5), MDA-MB-435 (5), and BT474 (5). When tumors reached approximately 200-300 mm^3, mice were randomized by tumor size and divided into treatment groups. Tumor growth was evaluated approximately twice weekly, with tumor volume calculated as π/6* (Length*Width^2), where Length=longest diameter and Width=diameter perpendicular to Length. Tumor dimensions were measured with calipers. T/C % was calculated as 100*(Final Treatment Tumor Volume/Initial Treatment Tumor Volume)/(Final Control Tumor Volume/Initial Control Tumor Volume).
18F1 was diluted in 0.9% USP saline (Braun) or phosphate buffered saline (PBS) and administered intraperitoneally in a volume of 0.5 mL per mouse. The effect of treatment on tumor growth was analyzed using repeated measures analysis of variance (RM ANOVA), p<0.05 was considered significant.

[1] = test system: HT-29 human colon carcinoma cells; assay: Soft agarose colony formation; assay type: cell-based; conditions: 66 nM antibody, 10 ng/mL VEGF-A or 50 ng/mL VEGF-B, 14 days, p<0.03
Procedure: One mL DMEM medium containing 10% FBS and 1% agarose (Cambrex Corporation, East Rutherford, N.J.) was plated in each well of six well plates. HT-29 human colon carcinoma cells in serum free medium were treated with 66 nM 18F1 or control IgG for 1 hour and followed by treatment with 10 ng/mL VEGF-A or 50 ng/mL VEGF-B for additional 4 hours. The treated cells were mixed with 1 mL 10% FBS DMEM containing 0.5% agarose and the appropriate antibodies and/or ligands. One mL of this suspension, containing 250 cells, was plated in each well on top of the 1% agarose base layer. After 2 days, additional medium containing antibodies and/or ligands was added to the wells to keep the agarose hydrated. Cells were allowed to grow for 14 days at 37° C. Afterwards, colonies larger than 50 μm in diameter were counted using a dissecting microscope. Statistical analysis was performed using hiStat Statistical Software (V2.03, GraphPad Software, San Diego, Calif.)

MDA-MB-231 xenografts = assay: Immunohistochemistry and TUNEL of MDA-MB-231 xenografts; assay type: in vivo, mouse
Procedure: Paraffin-embedded MDA-MB-231 xenografts were evaluated immunohistochemically for markers of tumor cell proliferation, survival, and apoptosis. Markers of proliferation and survival included Ki-67 (rabbit pAb; Lab Vision Corporation, Fremont, Calif.), phospho-specific p44/42 MAPK (Thr202/Tyr204) (rabbit pAb; Cell Signaling Technology) and phospho-specific Akt (Ser473) (rabbit pAb; Cell Signaling Technology). The EnVision+ System for rabbit antibodies (DAKO Cytomation, Carpenteria, Calif.) was used with 3,3′ diaminobenzidine (DAB) as the chromagen, per kit instructions. After brief counterstaining in Mayer's hematoxylin all sections were dehydrated, cleared and coverslipped using a permanent mounting medium. Tumor apoptosis was assessed by TUNEL assay using ApopTag® Peroxidase In Situ Apoptosis Detection Kit (Chemicon, Temecula, Calif.) per kit instructions. Stained sections were coverslipped with Gelmount (Biomeda, Foster City, Calif.). Positive immunostaining and TUNEL positive […] were analyzed and imaged using an Axioskop light microscope with an Axiocam digital camera (Carl Zeiss, Germany).

VEGFR-I = VEGFR-I (Homo sapiens, UniProt P17948); assay: VEGFR-I phosphorylation assay, BT474 cells; assay type: cell-based; set-up: endogenous in cells; host or cells: BT474 human breast carcinoma cells; conditions: BT474 breast cancer cells, compared to untreated control, FIG. 11
Procedure: Confluent porcine aorta endothelial VEGFR-I expressing (PAE-VEGFR-I) cells and BT474 human breast carcinoma cells were cultured in serum-depleted F12 medium for 48 hours. The cells were then preincubated with anti-VEGFR-I antibody clone 18F1 at concentrations ranging from 0.1 to 30 μg/ml for 1 hour followed by stimulating with VEGF or PlGF for 5 minutes at 37° C. The cells were then rinsed with ice-cold PBS and lysed in lysis buffer (50 mM HEPES, 150 mM NaCl, 1% Triton X-100, and 10% glycerol containing 1 mM phenylmethylsulfonyl fluoride, 10 μg/ml aprotinin, 10 μg/ml leupeptin, and 1 mM sodium vanadate). Cell lysates were subjected to SDS-PAGE and transferred onto Immobilon membranes (Millipore Corp. Billerica, Mass.). […]
Autophosphorylation of the VEGFR-I induced by its ligands and resulting activation of a classical MAPK, extracellular signal-regulated protein kinases 1Z2 (ERK1Z2) and the PBK/Atk downstrean signaling pathways mediate cellular biological responses such as proliferation, motility, survival, and differentiation. The ability of an anti-VEGFR-1 antibody to inhibit phosphorylation of VEGFR-I and activation of ERK1 Z2 and the Akt kinases downstream signaling were determined by using the PAE-VEGFR-I transfectant and BT474 breast carcinoma cells. […]

[2] = after 1 week, 0.5 mg/dose M-W-F
[3] = after 14 days, 20 mg/kg 2x/week

Sequence of VEGFR-I (P17948 27-1338): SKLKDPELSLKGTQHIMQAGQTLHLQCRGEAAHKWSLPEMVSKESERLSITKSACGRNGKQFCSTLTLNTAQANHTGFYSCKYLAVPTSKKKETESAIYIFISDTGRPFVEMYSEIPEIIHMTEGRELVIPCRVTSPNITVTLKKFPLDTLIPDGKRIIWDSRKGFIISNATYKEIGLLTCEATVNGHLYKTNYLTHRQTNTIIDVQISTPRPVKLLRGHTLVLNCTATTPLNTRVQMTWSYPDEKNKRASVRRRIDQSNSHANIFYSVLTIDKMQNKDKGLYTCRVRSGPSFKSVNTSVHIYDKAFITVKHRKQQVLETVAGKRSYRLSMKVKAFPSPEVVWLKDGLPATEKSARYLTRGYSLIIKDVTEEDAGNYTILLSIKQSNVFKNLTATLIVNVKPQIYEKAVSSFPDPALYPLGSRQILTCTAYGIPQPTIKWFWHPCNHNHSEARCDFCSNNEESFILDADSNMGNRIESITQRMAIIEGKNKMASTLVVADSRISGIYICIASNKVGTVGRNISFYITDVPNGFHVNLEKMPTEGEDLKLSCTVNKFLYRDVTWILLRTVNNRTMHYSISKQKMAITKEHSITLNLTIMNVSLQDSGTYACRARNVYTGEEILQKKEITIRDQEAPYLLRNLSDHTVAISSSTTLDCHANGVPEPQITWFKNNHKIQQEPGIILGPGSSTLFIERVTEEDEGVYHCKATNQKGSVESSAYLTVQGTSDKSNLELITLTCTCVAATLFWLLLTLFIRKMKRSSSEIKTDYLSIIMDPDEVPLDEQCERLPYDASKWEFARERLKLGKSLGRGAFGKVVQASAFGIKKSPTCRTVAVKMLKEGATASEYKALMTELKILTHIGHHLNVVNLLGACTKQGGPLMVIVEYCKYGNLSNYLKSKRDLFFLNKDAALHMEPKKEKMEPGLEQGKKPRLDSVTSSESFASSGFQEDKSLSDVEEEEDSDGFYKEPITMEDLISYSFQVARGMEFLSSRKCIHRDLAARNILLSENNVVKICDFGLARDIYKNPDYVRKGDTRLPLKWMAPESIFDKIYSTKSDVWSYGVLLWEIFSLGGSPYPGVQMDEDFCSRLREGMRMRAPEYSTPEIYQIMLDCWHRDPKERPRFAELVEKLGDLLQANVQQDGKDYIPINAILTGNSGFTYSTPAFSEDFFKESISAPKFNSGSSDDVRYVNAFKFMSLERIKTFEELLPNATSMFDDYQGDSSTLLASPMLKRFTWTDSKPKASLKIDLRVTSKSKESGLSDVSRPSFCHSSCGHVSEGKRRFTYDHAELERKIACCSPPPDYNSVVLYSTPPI

18F1: human anti-VEGFR-1 monoclonal antibody clone; VL SEQ ID NO: 16, VH SEQ ID NO: 20 [Clone 18F1]
tumor growth of the MDA-MB-231 xenograft (MDA-MB-231 xenograft; 0.5 or 1 mg per dose three times each week, ANOVA p<0.05, FIG. 20B): statistically significant suppression | growth of MDA-MB-231 xenograft tumors (MDA-MB-231 xenograft; Example 9, intraperitoneal, p<0.05): significantly (p<0.05) suppressed | tumor growth inhibition, MDA-MB-231 xenograft (MDA-MB-231 xenograft; Example 11, p<0.05, FIG. 28A): significant tumor growth inhibition | antitumor effect against GEO colon cancer xenografts (GEO xenograft): significant antitumor effect | VEGF-A or VEGF-B induced colony formation [1]: completely suppressed | Akt phosphorylation (MDA-MB-231 xenografts; [2]): significant decrease | apoptosis as measured by TUNEL positive events (MDA-MB-231 xenografts; [2]): increase | activation of MAPK (MDA-MB-231 xenografts; [3]): marked decrease | marker for proliferating cells (Ki-67) (MDA-MB-231 xenografts; [3]): significantly reduced | PlGF or VEGF-stimulated phosphorylation of VEGFR-I (VEGFR-I): significantly reduced; also recorded: inhibition
